Activity calls are given as the source filed them. No cut-off for these calls is given here.
Assays:
HCT-116 = assay: Cytotoxicity against human HCT116 cells assessed as inhibition of cell viability incubated for 48 hrs by MTT assay; assay type: functional, cell-based; conditions: HCT-116, 48 h
[1] = target: T1, Nuclear factor erythroid 2-related factor 2 (Homo sapiens) (UniProt Q16236); assay: Activation of Nrf2 in human HEK293-ARE-Luc cells at 10 to 100 uM incubated for 24 hrs by ARE-luciferase reporter gene assay; assay type: cell-based; conditions: filed as activator, dose 10-100 µM
T1 sequence (whole entry): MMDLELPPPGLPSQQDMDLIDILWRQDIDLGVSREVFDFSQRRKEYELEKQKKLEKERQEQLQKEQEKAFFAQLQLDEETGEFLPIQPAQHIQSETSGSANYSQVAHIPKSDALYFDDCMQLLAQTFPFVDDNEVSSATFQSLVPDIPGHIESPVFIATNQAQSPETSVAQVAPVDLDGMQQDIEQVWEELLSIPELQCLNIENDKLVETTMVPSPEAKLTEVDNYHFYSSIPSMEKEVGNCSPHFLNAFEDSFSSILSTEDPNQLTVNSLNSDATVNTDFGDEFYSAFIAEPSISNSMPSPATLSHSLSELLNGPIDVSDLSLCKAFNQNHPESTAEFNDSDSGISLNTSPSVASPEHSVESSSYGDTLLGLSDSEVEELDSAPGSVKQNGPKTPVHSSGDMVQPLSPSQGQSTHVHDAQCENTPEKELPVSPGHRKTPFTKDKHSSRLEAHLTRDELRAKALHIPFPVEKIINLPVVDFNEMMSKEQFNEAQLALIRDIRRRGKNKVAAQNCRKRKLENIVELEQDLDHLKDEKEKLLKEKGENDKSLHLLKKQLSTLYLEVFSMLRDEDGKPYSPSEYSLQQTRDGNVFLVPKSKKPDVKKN

HEK293 [2] = assay: Cytotoxicity against human HEK293-ARE-Luc cells assessed as reduction in cell viability at 10 to 100 uM incubated for 24 hrs by MTT assay; assay type: toxicity, cell-based; conditions: hek293, 24 h, dose 10-100 µM
[3] = target: T1, Nuclear factor erythroid 2-related factor 2 (Homo sapiens); assay: Activation of Nrf2 in human HEK293-ARE-Luc cells assessed as fold activation of luciferase activity at 100 uM incubated for 24 hrs by ARE-luciferase reporter gene assay; assay type: cell-based; conditions: filed as activator
HEK293 [4] = assay: Cytotoxicity against human HEK293-ARE-Luc cells assessed as change in cell viability incubated for 24 hrs by MTT assay; assay type: toxicity, cell-based; conditions: hek293, 24 h
[5] = target: T1, Nuclear factor erythroid 2-related factor 2 (Homo sapiens); assay: Activation of Nrf2 in human HEK293-ARE-Luc cells assessed as fold activation of luciferase activity at 32 uM incubated for 24 hrs by ARE-luciferase reporter gene assay; assay type: cell-based; conditions: filed as activator

fold change (FC) [5]	SMILES	IC50 (HCT-116) [µM]	other results
	CCCCCc1cccc(OC)c1C(=O)O[C@@H](C(=O)O[C@@H](C)C(=O)NC/C=C(/Cl)C(=O)OC)[C@@H](C)CC	5	Activity [1]: Active; Activity (HEK293 [2]): Toxic
	CCCCCc1cccc(OC)c1C(=O)O[C@@H](C(=O)O[C@@H](C)C(=O)NC/C=C(/Cl)C(=O)NC(c1ccccc1)(c1ccccc1)c1ccccc1)[C@@H](C)CC		fold change (FC) [3]: 6
29	CC(C)(C)c1cc(O)ccc1O [E319]		Activity (HEK293 [4]): Non-Toxic
15	CCCCCc1cccc(OC)c1C(=O)O[C@@H](C(=O)O[C@@H](C)C(=O)NC/C=C(\Cl)C(N)=O)[C@@H](C)CC	42	
17	CCCCCc1cccc(OC)c1C(=O)O[C@@H](C(=O)O[C@@H](C)C(=O)NC/C=C(/Cl)C(N)=O)[C@@H](C)CC	32	
	CCCCCc1cccc(OC)c1C(=O)O[C@@H](C(=O)O[C@@H](C)C(=O)NC/C=C(\Cl)C(=O)OC)[C@@H](C)CC	9	Activity [1]: Active; Activity (HEK293 [2]): Toxic
	CCCCCc1cccc(OC)c1C(=O)O[C@@H](C(=O)O[C@@H](C)C(=O)NC/C=C(\Cl)C(=O)NC(c1ccccc1)(c1ccccc1)c1ccccc1)[C@@H](C)CC		fold change (FC) [3]: 11
